# In publication PMC12650265 (The Journal of Experimental Medicine, 2025):
# “Also recorded” adds a separate entry of the source.
# How the values were obtained:
# [1] = test system: T1, human MR1–β2-microglobulin (β2m) complex; test: refolding of recombinant MR1-β2m with ligand; format: binding; details: ligand added to refolding buffer; gel filtration and SDS-PAGE
# T1 construct: plasmids encoding for the extracellular domains of MR1, β2m, and the AF-7 TCRα and TCRβ chains; made in house
# [2] = test system: soluble WT MR1; test: fluorescence-based thermal shift (thermostability) assay of MR1–ligand complexes; format: binding, human; details: MR1 refolded with the ligand, SYPRO Orange, 28 to 95°C, three independent experiments
# [3] = test system: T2, MR1^K43A on C1R.MR1^K43A cells; test: cell surface MR1^K43A by flow cytometry; format: cell-based, human
# T2 construct: expressed in transfected cells; host or cells: C1R cells overexpressing MR1^K43A
# From the text: (§1) We then tested the effect of the RF catabolites on the expression of two mutant versions of MR1 termed MR1^R9H ([Howson et al., 2020]) and MR1^K43A ([Reantragoon et al., 2013]). First, we tested the MR1^R9H mutant ([Howson et al., 2020]), which represents a rare, natural human polymorph. […] We used C1R.MR1^R9H cells, which are produced by stable transduction of wild-type C1R cells, which express low levels of wild-type MR1, with a vector expressing the MR1^R9H mutant ([Howson et al., 2020]). […] When C1R. […] Next, we sought to understand how the previously characterized K43A mutation affects ligand binding.
# The level of MR1 expressed on the cell surface was measured after the exposure to the investigated ligands as previously described ([Awad et al., 2020a]; [Wang et al., 2022a]). C1R Ag-presenting B lymphocytes overexpressing MR1*01 (C1R.MR1), MR1^K43A mutant (C1R.MR1^K43A), MR1^R9H mutant (C1R.MR1^R9H), or HLA-A*02:01 (C1R-A2), in addition to the monocytic THP-1-MR1 cells, were used in this study. 2 × 10^5 cells were incubated with RF catabolites for 3 or 16 h at 37°C and 5% CO2 in 200 μl folate-free RPMI 1640 medium from Gibco (Cat. No. 11875-093) fortified with 10% fetal bovine serum, sodium pyruvate (1 mmol/L), HEPES buffer (15 mmol/L), pH 7.2–7.5, 2% penicillin (100 U/ml), streptomycin ([…]), GlutaMAX (2 mmol/L), nonessential amino acids (0.1 mmol/L) (all from Thermo Fisher Scientific, Life Technologies), and 2-mercaptoethanol ([…], Sigma-Aldrich) (RF-10). After incubation, the cells were first stained with Zombie Aqua Fixable Viability Kit from BioLegend (Cat. No. 423102) and then incubated with biotinylated 8F2F9 αMR1 antibody for 30 min on ice. The unbound antibody was then washed off with 2% fetal bovine serum/PBS (called 2% FACS hereafter) buffer. The cells were finally incubated with PE-conjugated streptavidin (30 μg/ml; BioLegend) and then washed with 2% FACS buffer. The PE fluorescence intensity reflects the surface MR1 level. The data were acquired with LSRFortessa X-20 (BD Biosciences) and Diva software (BD Biosciences) and analyzed using FlowJo software (BD Biosciences).
# [4] = test system: SKW-3 cells expressing MAIT TCR AF-7; test: SKW-3 reporter T cell activation (CD69), coculture with C1R.MR1; format: cell-based; details: for reactivity to 5-OP-RU (CD69): SKW-3-AF-7, in the presence of 1 nM 5-OP-RU; for reactivity to RL-7-Me (CD69): SKW-3-AF-7, in the presence of 100 nM RL-7-Me
# Experimental: (§2) Given the intracellular MR1 retention induced by the RF catabolites, we anticipated that these ligands could influence the activity of MR1-reactive T cells. First, we utilized a system whereby reporter SKW-3 T cell lines were cocultured with C1R.MR1 APCs and activation was determined by CD69 expression. […] In contrast, SKW-3-MBV28 cells were inhibited by alloxazine but activated by lumichrome (Fig. S3, D–F). Two MR1-restricted TRAV1-2^−ve SKW-3 T cell lines were also tested.
# (§3) C1R.MR1 cells (1 × 10^5) were initially stained with CTV (Thermo Fisher Scientific) for 15 min and then incubated with RF catabolites for 20 h. […] Cells were subsequently stained with PE-Cy7-conjugated anti-CD69 (1:100; BD Biosciences) and PE-labeled anti-MR1 (1:100, clone 26.5; BD Biosciences), before analysis on a LSRFortessa (BD Biosciences) flow cytometer. Activation of the SKW-3 cells was reflected by the cell surface CD69 expression.
# [5] = target: T3, hMR1 protein (Homo sapiens, UniProt Q95460); test: fluorescence polarization–based cell-free assay, competition with JYM20 for MR1 binding; details: 50% inhibition of 10 nM JYM20 binding to 100 nM empty hMR1, 37°C; three independent experiments in triplicate
# T3 construct: plasmids encoding for the extracellular domains of MR1, β2m, and the AF-7 TCRα and TCRβ chains; made in house; host or cells: Escherichia coli BL21(DE3)
# T3 sequence (Q95460 23-302 limits assumed): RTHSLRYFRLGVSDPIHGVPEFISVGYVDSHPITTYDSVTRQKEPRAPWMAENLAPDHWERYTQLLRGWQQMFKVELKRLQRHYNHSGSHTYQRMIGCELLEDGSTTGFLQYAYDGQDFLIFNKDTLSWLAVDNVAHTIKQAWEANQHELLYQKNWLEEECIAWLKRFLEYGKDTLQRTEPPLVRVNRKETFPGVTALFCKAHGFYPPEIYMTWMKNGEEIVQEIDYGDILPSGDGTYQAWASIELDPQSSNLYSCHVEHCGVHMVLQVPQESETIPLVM
# T3 sequence (P61769 21-119 partner): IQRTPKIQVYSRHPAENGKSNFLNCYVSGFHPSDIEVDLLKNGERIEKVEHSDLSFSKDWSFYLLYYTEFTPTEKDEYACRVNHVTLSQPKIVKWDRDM
# [6] = test system: T4, MR1 on PBMC-derived B lymphocytes; test: MR1 surface expression on primary B cells; format: cell-based; details: primary human B cells, 16 h, highest doses, with or without 5-OP-RU
# T4 construct: we also measured MR1 on the surface of cells expressing wild-type levels of MR1; endogenous in cells; host or cells: PBMC-derived B lymphocytes from healthy human donors
# [7] = test system: T5, surface MR1*01 on THP-1.MR1 cells; test: quantification of cell surface MR1 by flow cytometry, THP-1.MR1 cells; format: cell-based, human; details: 3 h
# T5 construct: expressed in transfected cells; host or cells: THP-1 monocytic cells transduced with MR1
# Experimental: Next, we investigated whether these RF catabolites can impact MR1 cell surface expression in both MR1-transduced B cell lymphoblastoid (C1R.MR1) and monocytic (THP-1.MR1) cell lines (Fig. 2). Here, the cells were incubated with 1–200 µM of RF or the RF catabolites, and the cell surface levels of MR1 were quantified by flow cytometry ([Awad et al., 2020a]; [Keller et al., 2017]). […] The MR1 downregulation seen in C1R.MR1 cells was specific to MR1 as the level of HLA-A*02:01 was not affected after incubating C1R-A2 with the ligands (Fig. S1 E). […] This MR1 downregulation varied between cell types, with a higher extent observed in THP-1.MR1 than C1R.MR1, and was seen after staining with two different conformational anti-MR1 antibodies (clones 8F2F9 and 26.5; Fig. 2 G). Beyond APCs overexpressing MR1, we also measured MR1 on the surface of cells expressing wild-type levels of MR1.
# (§4) The level of MR1 expressed on the cell surface was measured after the exposure to the investigated ligands as previously described ([Awad et al., 2020a]; [Wang et al., 2022a]). […] The PE fluorescence intensity reflects the surface MR1 level. The data were acquired with LSRFortessa X-20 (BD Biosciences) and Diva software (BD Biosciences) and analyzed using FlowJo software (BD Biosciences).
# [8] = test system: T6, MR1 in C1R.MR1 cells; test: Endo H treatment and western blot of intracellular MR1; format: cell-based, human; details: 16 h, Ac-6-FP 10 μM, RF and catabolites 100 μM
# T6 construct: expressed in transfected cells; host or cells: C1R B lymphoblastoid cells transduced with MR1*01
# Experimental: The downregulation of MR1 on the cell surface by the RF catabolites could be due to the depletion of the intracellular ER-resident MR1 pool, or due to the retention of MR1 in the ER, as shown for the DB28 ligand ([Salio et al., 2020]). To investigate this, C1R.MR1 cells were treated for 16 h with 100 µM RF or RF catabolites, conditions that induce MR1 downregulation (Fig. 3 A). Cells were lysed, and treated with endoglycosidase (Endo) H, to distinguish molecules that remain within the ER from those that have trafficked to the cell surface ([McWilliam et al., 2016]), and then, MR1 levels were assessed by immunoblotting (Fig. 3 A).
# C1R.MR1 cells were cultured with different RF catabolites for 16 h, at 37°C. Samples were then treated with or without Endo H for 1-h incubation at 37°C. Cells were lysed, and lysate protein concentration was quantified by BCA assay. Equal amounts of samples (40 µg total protein) were separated on SDS-PAGE gels before being transferred onto nitrocellulose membranes and incubated with primary (anti-MR1; clone 8G3) ([McWilliam et al., 2020]) then corresponding secondary antibody (IRDye 800CW anti-mouse IgG, Cat. No. 925-32210; LICORbio). The protein bands were visualized by the Li-Cor system.
# [9] = test system: T7, MR1^R9H on C1R.MR1^R9H cells; test: cell surface MR1^R9H by flow cytometry; format: cell-based, human
# T7 construct: expressed in transfected cells; host or cells: C1R cells stably transduced with MR1^R9H
# From the text: as §1
# as §4, with “2022a]). C1R Ag-presenting B lymphocytes overexpressing MR1*01 (C1R.MR1), MR1^K43A mutant (C1R.MR1^K43A), MR1^R9H mutant (C1R.MR1^R9H), or HLA-A*02:01 (C1R-A2), in addition to the monocytic THP-1-MR1 cells, were used in this study.” for “2022a]).”
# [10] = test system: T8, folded MR1 in C1R.MR1 cells; test: intracellular total folded MR1 by flow cytometry (8F2.F9); format: cell-based, human; details: 16 h, 100 µM
# T8 construct: expressed in transfected cells; host or cells: C1R B lymphoblastoid cells transduced with MR1*01
# [11] = test system: MAIT and TRAV1-2^−ve cells from PBMCs; test: TCR-independent or bead stimulation of PBMCs (PMA and ionomycin, αCD3/αCD28 beads); format: cell-based, human; details: PBMCs preincubated 16 h, then PMA and ionomycin; MAIT or non-MAIT TRAV1-2^−ve cells
# [12] = test system: SKW-3 cells expressing MAIT TCR MBV28; test: SKW-3 reporter T cell activation (CD69), coculture with C1R.MR1; format: cell-based; details: SKW-3 MBV28 cocultured with C1R.MR1, no agonist
# Experimental: as §2, §3
# [13] = test system: T9, surface MR1*01 on C1R.MR1 cells; test: quantification of cell surface MR1 by flow cytometry, C1R.MR1 cells; format: cell-based, human; details: C1R.MR1 cells, 1–200 µM, 8F2F9 antibody
# T9 construct: expressed in transfected cells; host or cells: C1R B lymphoblastoid cells transduced with MR1*01
# [14] = test system: T10, MR1 on C1R.MR1 cells; test: competition with Ac-6-FP or 5-OP-RU for MR1 upregulation, C1R.MR1 cells; format: cell-based, human; details: 1–200 µM overnight
# T10 construct: expressed in transfected cells; host or cells: C1R B lymphoblastoid cells transduced with MR1*01
# [15] = test system: T11, MR1 on THP-1.MR1 cells; test: competition with Ac-6-FP for MR1 upregulation, THP-1.MR1 cells; format: cell-based, human; details: 1–200 µM overnight, then 10 µM Ac-6-FP for 3 h
# T11 construct: expressed in transfected cells; host or cells: THP-1 monocytic cells transduced with MR1
compound,measurement,setting,value
"Cc1cc2nc3c(=O)[nH]c(=O)nc-3n(C)c2cc1C [Lumiflavin, lumiflavin]",folding of the MR1-β2m cocomplex in solution,[1],facilitated the correct folding of the MR1-β2m cocomplex
same,"Tm50 (half-maximum melting temperature), Mean ± SD",[2]; listed as MR1-Lumiflavin,52.02 ± 0.58 °C
same,MR1^K43A at the cell surface,[3]; 3 h,increased MR1^K43A at the cell surface
same,reactivity to 5-OP-RU (CD69),[4],enhanced activation
same,reactivity to RL-7-Me (CD69),[4],activation was enhanced
same,IC50,[5],22.8 µM
same,MR1 surface expression,[6],reduced MR1 surface expression
same,MR1 cell surface expression,[7],downregulated MR1 after 3 h
"CC(=O)Nc1nc2ncc(C=O)nc2c(=O)[nH]1 [Ac-6-FP, acetyl-6-FP, reference compound]",Endo H–resistant MR1,[8],"increase in MR1 of a higher molecular weight, in line with Endo H resistance"
same,"Tm50 (half-maximum melting temperature), Mean ± SD",[2],64.22 ± 0.27 °C
same,MR1^R9H surface level,[9],significantly increased
same,total level of folded MR1 (intracellular staining with 8F2.F9),[10],significantly increased total folded MR1
"Cc1cc2nc3c(=O)[nH]c(=O)nc-3n(C[C@H](O)[C@H](O)[C@H](O)CO)c2cc1C [RF, riboflavin]",Endo H–resistant MR1,[8],Neither RF nor its catabolites induced any Endo H–resistant MR1
same,folding of the MR1-β2m cocomplex in solution,[1],did not sponsor refolding of MR1
same,block of CD69 upregulation and TNF production,[11],neither RF nor RF catabolites could block
same,MR1^K43A at the cell surface,[3]; 16 h,MR1 upregulation continues
same,reactivity to 5-OP-RU (CD69),[4],not altered
same,reactivity to RL-7-Me (CD69),[4],activation was enhanced
same,"activation (CD69 expression), ligand alone","[4]; SKW-3 AF-7 cocultured with C1R.MR1, no agonist",not activated
same,"activation (CD69 expression), ligand alone",[12],not activated
same,MR1^R9H surface level,[9],did not deviate from the background level
same,IC50,[5],182 µM
same,MR1 cell surface expression,[13]; 3 h,did not alter MR1 expression from the baseline
same,MR1 cell surface expression,[13]; 16 h,modestly upregulated MR1; also recorded: modest increase
same,effect on Ac-6-FP–induced cell surface upregulation of MR1,[14]; then 10 µM Ac-6-FP for 3 h,did not modulate
same,effect on 5-OP-RU–induced cell surface upregulation of MR1,[14]; then 5-OP-RU for 3 h,did not modulate
same,effect on Ac-6-FP–induced cell surface upregulation of MR1,[15],did not modulate
